In PMC4823711, “Allosteric Partial Inhibition of Monomeric Proteases. Sulfated Coumarins Induce Regulation, not just Inhibition, of Thrombin” (Scientific Reports, 2016):
Like-named read-outs stand apart in the source and are kept apart here.

Experiments:
[1] = molecular target: T1, factor Xa (Homo sapiens, UniProt P00742); assay: Chromogenic substrate hydrolysis assay, factor Xa inhibition (Spectrozyme FXa); format: biochemical
T1 construct: antithrombin, factor Xa and factor XIa were from Haematologic Technologies; purchased Haematologic Technologies (Essex Junction, VT); host or cells: human plasma
T1 sequence (P00742 235-488 limits assumed): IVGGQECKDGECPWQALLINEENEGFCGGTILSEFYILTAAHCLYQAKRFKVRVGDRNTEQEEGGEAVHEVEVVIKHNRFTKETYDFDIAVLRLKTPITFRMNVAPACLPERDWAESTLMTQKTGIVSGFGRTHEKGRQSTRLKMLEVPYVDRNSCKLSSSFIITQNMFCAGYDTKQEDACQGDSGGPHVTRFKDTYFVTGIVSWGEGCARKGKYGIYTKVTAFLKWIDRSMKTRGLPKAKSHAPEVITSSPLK
T1 sequence (P00742 41-179 limits assumed): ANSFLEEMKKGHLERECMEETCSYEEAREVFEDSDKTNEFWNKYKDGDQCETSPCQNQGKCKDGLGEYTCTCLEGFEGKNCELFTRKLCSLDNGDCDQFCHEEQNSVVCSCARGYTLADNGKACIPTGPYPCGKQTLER
Procedure: For factor XIa inhibition studies, 85 μL of buffer (50 mM Tris-HCl, 150 mM NaCl, 0.1% PEG 8000, 0.02% Tween 80, pH 7.4) was added to each well, followed by 7 μL of 15.3 nM enzyme and 3 μL of sulfated coumarin (3.75–500 μM final concentration) and incubated for 10 min at 37 °C. After the incubation period, 5 μL of 6.9 mM S-2366 was added to each well simultaneously and allowed to react for 300 sec at 37 °C. For factor Xa assay, 180 μL of buffer (20 mM Tris-HCl, 100 mM NaCl, 2.5 mM CaCl2, 0.1% PEG 8000, 0.02% Tween 80, pH 7.4) was added to each well followed by 5 μL of 43.5 nM enzyme, 10 μL of sulfated coumarin (0.002–250 μM final concentration). After a 10 min incubation, 5 μL of 5 mM Spectrozyme FXa was added to each well simultaneously and allowed to react for 300 seconds at 37 °C. The slopes generated from each experiment were used to calculate the fractional residual activity (Y) at each concentration of the inhibitor, and analyzed using logistic equation 1, in which YM is the maximum efficacy, Y0 is minimum efficacy and HS is the Hill slope.

[2] = molecular target: T2, thrombin mutant R233A (Homo sapiens, UniProt P00734, R608A); assay: Inhibition of thrombin mutant R233A; format: biochemical; details: pH 7.4, 25 °C
T2 construct: a group of thrombin mutants containing replacement of either Arg or Lys present in exosite 2 to Ala
Procedure: Chromogenic substrate hydrolysis assay was used to measure potency of inhibition, as previously reported. The assay was performed using Flexstation III (Molecular Devices, Sunnyvale, CA) by monitoring substrate hydrolysis at 405 nm. For thrombin and its mutants, 180 μL of buffer (20 mM Tris-HCl, 100 mM NaCl, 2.5 mM CaCl2, 0.1% (polyethylene glycol) PEG 8000, pH 7.4) was added to each well followed by 5 μL of 240 nM thrombin and 10 μL of sulfated coumarin in DMSO to give 0.002 to 250 μM final concentration (or 10 μL of DMSO alone). After incubation for 10 min at 25 °C, 5 μL of 2 mM Spectrozyme TH was added to each well simultaneously and allowed to react for 60 seconds at 25 °C while simultaneously monitoring the reaction to obtain the rate of increase in A405. Identical experimental conditions were used for reactions in the presence of antithrombin, except for 100 nM of antithrombin added prior to the addition of the substrate.

[3] = molecular target: T3, fluorescein-labeled (f FPRCK-) thrombin (Homo sapiens, UniProt P00734); assay: Iodide fluorescence quenching of f FPRCK-thrombin (Stern-Volmer)
T3 construct: fluorescein-labeled (f FPRCK-) human thrombin; purchased Haematologic Technologies (Essex Junction, VT); host or cells: human plasma
Procedure: The quenching studies performed were done using quartz cuvettes, as described previously. 180 μL of buffer (20 mM Tris-HCl, 100 mM NaCl, 2.5 mM CaCl2, 0.1% PEG 8000, pH 7.4) and 20 μL of 2 μM fluorescein-labeled (f FPRCK-) human thrombin were added to the cuvette; fluorescent intensity readings were taken at the λEX of 490 nm and λEM of […] at 25 °C. A solution of 10 M NaI was made using buffer as the solvent. For the readings where inhibitor was absent, 1 μL increments of 10 M NaI was added directly to the cuvette after initial readings of the buffer-thrombin solution. NaI was added six times, while recording changes in fluorescent intensity each time, giving a concentration range of […] in the cuvette. For the readings where inhibitor was present, after the initial buffer-thrombin read, 1 μL of 80 μM inhibitor solution was added to the cuvette and mixed. An intensity reading was taken and then the addition of 1 μL increments of 10 M NaI was again performed six times, taking reads between each addition. The experiments were performed in triplicate and averaged. Initial fluorescence (F0) was the intensity reading from either the buffer-thrombin solution in the absence of 3g or following addition of 1 μL of 3g. […]

[4] = molecular target: thrombin (Homo sapiens, UniProt P00734); assay: Thrombin inhibition in the presence of exosite 1 (HirP) and exosite 2 (UFH) ligands; format: biochemical; set-up: 6 nM plasma α-thrombin; purchased Haematologic Technologies (Essex Junction, VT)
Procedure: Thrombin inhibition by 3g was examined in the presence of either HirP (exosite 1 ligand) or UFH (exosite 2 ligand). 3g was prepared in DMSO (0.010–50 μM) and thrombin (4–8 nM) were incubated at 25 °C with HirP (0–187 nM) or UFH (0–22.8 μM) in buffer (20 mM Tris-HCl, 100 mM NaCl, 2.5 mM CaCl2, 0.1% PEG 8000, pH 7.4). After 10 min, thrombin activity was measured using Spectrozyme TH hydrolysis assay, as described above. The slopes obtained (in triplicate) were fitted using equation 1 to calculate IC50,app, ∆Y, and HS. The IC50,app at each concentration of the competitor was also calculated using the Dixon-Webb relationship (equation 3) from the known affinities (Kcomp) of the competitor.

## O=c1oc2cc(OCCCCn3cc(COc4ccc(-c5c(-c6ccccc6)c6cc(Cl)cc(Cl)c6oc5=O)cc4)nn3)ccc2c(-c2ccccc2)c1-c1ccc(OS(=O)(=O)O)cc1 [3g]
[1]
  selectivity for thrombin in comparison to factor Xa: ~ 800 fold
[1]; pH 7.4, 37 °C, read-out: IC50 against factor Xa
  IC50: > 30000 nM
[2]
  HS: 2.0
  IC50: 359 ± 70 nM
  ΔY: 33 ± 4%
[3]; 90% saturation of thrombin, pH 7.4, 25 °C, thrombin alone 2.37 ± 0.14
  slope of iodide quenching (Stern-Volmer, KSV): 1.19 ± 0.06 M⁻¹
[3]; 90% saturation, versus thrombin alone
  reduction of iodide quenching of f FPRCK-thrombin: ~ 50%
[4]; [HirP] 0 nM, Dixon-Webb relationship, read-out: IC50,predicted
  IC50: 240 nM
[4]; [HirP] 0 nM, pH 7.4, 25 °C
  HS: 3.3
  ΔY: 52 ± 2%
[4]; [HirP] 0 nM, pH 7.4, 25 °C, read-out: IC50,app
  IC50: 220 ± 20 nM
[4]; [HirP] 25 nM, Dixon-Webb relationship, read-out: IC50,predicted
  IC50: 450 nM
[4]; [HirP] 25 nM, pH 7.4, 25 °C
  HS: 2.4
  ΔY: 58 ± 1%
[4]; [HirP] 25 nM, pH 7.4, 25 °C, read-out: IC50,app
  IC50: 330 ± 20 nM
[4]; [HirP] 187 nM, Dixon-Webb relationship, read-out: IC50,predicted
  IC50: 670 nM
[4]; [HirP] 187 nM, pH 7.4, 25 °C
  HS: 2.0
  ΔY: 59 ± 6%
[4]; [HirP] 187 nM, pH 7.4, 25 °C, read-out: IC50,app
  IC50: 330 ± 60 nM
[4]; [UFH] 0 μM, Dixon-Webb relationship, read-out: IC50,predicted
  IC50: 170 nM
[4]; [UFH] 0 μM, pH 7.4, 25 °C
  HS: 1.3
  ΔY: 56 ± 3%
[4]; [UFH] 0 μM, pH 7.4, 25 °C, read-out: IC50,app
  IC50: 170 ± 20 nM
[4]; [UFH] 11.4 μM, Dixon-Webb relationship, read-out: IC50,predicted
  IC50: 290 nM
[4]; [UFH] 11.4 μM, pH 7.4, 25 °C
  HS: 1.7
  ΔY: 66 ± 5%
[4]; [UFH] 11.4 μM, pH 7.4, 25 °C, read-out: IC50,app
  IC50: 290 ± 30 nM
[4]; [UFH] 22.8 μM, Dixon-Webb relationship, read-out: IC50,predicted
  IC50: 450 nM
[4]; [UFH] 22.8 μM, pH 7.4, 25 °C
  HS: 3.7
  ΔY: 59 ± 3%
[4]; [UFH] 22.8 μM, pH 7.4, 25 °C, read-out: IC50,app
  IC50: 580 ± 30 nM
[4]; exosite 1 ligand HirP
  increase of IC50 in the presence of HirP: 50%
